From patent US6737383B1, “Herbicidal oxadiazolidines” (priority 1999, dated 2004)

What was measured:
bedstraw = test: Test B pre/postemergence bedstraw; type: in vivo, Galium aparine
How it was run: (§1)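 Response is a visual 0-to-10 score relative to untreated plants, where 0 means no effect and 10 means complete control, taken twelve to sixteen days after application. Treatments went onto soil at planting and onto foliage of 1- to 4-leaf plants, using a surfactant-containing non-phytotoxic solvent.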

blackgrass = test: Test B pre/postemergence blackgrass; type: in vivo, Alopecurus myosuroides
How it was run: as §1

surinam grass = test: Test B pre/postemergence surinam grass; type: in vivo, Brachiaria decumbens
How it was run: as §1

cocklebur = test: Test B pre/postemergence cocklebur; type: in vivo, Xanthium strumarium
How it was run: as §1

corn = test: Test B pre/postemergence corn; type: in vivo, Zea mays
How it was run: as §1

crabgrass = test: Test B pre/postemergence crabgrass; type: in vivo, Digitaria sanguinalis
How it was run: as §1

giant foxtail = test: Test B pre/postemergence giant foxtail; type: in vivo, Setaria faberii
How it was run: as §1

morningglory = test: Test B pre/postemergence morningglory; type: in vivo, Ipomoea hederacea
How it was run: as §1

pigweed = test: Test B pre/postemergence pigweed; type: in vivo, Amaranthus retroflexus; settings: for Plant response rating, Redroot pigweed: Postemergence
How it was run: as §1

rape = test: Test B pre/postemergence rape; type: in vivo, Brassica napus
How it was run: as §1

soybean = test: Test B pre/postemergence soybean; type: in vivo, Glycine max; settings: for Plant response rating, Soybean: Postemergence
How it was run: as §1

sugar beet = test: Test B pre/postemergence sugar beet; type: in vivo, Beta vulgaris; settings: for Plant response rating, Sugarbeets: Postemergence
How it was run: as §1

velvetleaf = test: Test B pre/postemergence velvetleaf; type: in vivo, Abutilon theophrasti; settings: for Plant response rating, Velvetleaf: Postemergence
How it was run: as §1

wheat = test: Test B pre/postemergence wheat; type: in vivo, Triticum aestivum; settings: for Plant response rating, Wheat: Postemergence
How it was run: as §1

wild oat = test: Test B pre/postemergence wild oat; type: in vivo, Avena fatua; settings: for Plant response rating, Wild oats: Postemergence
How it was run: as §1

purple nutsedge = test: Test B pre/postemergence purple nutsedge; type: in vivo, Cyperus rotundus
How it was run: as §1

rice = test: Test B flood test rice; type: in vivo, Oryza sativa; settings: Rate 250 g/ha; Pre-emergence (flood test species); scale 0 to 10, 0 is no effect, 10 is complete control
How it was run: (§2)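 Plants were grown to the 2-leaf stage before treatment with test chemical, then held in a greenhouse for twelve to sixteen days. Injury was visually rated against untreated controls on a 0–10 scale, where 0 is no effect and 10 is complete control.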

smallflower flatsedge = test: Test B flood test smallflower flatsedge; type: in vivo, Cyperus difformis; settings: Rate 250 g/ha; Pre-emergence (flood test species); scale 0 to 10, 0 is no effect, 10 is complete control
How it was run: as §2

duck salad = test: Test B flood test duck salad; type: in vivo, Heteranthera limosa; settings: Rate 250 g/ha; Pre-emergence (flood test species); scale 0 to 10, 0 is no effect, 10 is complete control
How it was run: as §2

bamyardgrass = test: Test B flood test barnyardgrass; type: in vivo, Echinochloa crus-galli; settings: Rate 250 g/ha; Pre-emergence (flood test species); scale 0 to 10, 0 is no effect, 10 is complete control
How it was run: as §2

[1] = Postemergence, Rate 62 g/ha, scale of 0 to 10, 0 is no effect, 10 is complete control
[2] = Preemergence, Rate 62 g/ha, scale 0 to 10 (0 no effect, 10 complete control)
[3] = Preemergence, Rate 125 g/ha, scale 0 to 10, 0 is no effect, 10 is complete control
[4] = Preemergence, Rate 500 g/ha, scale of 0 to 10 where 0 is no effect and 10 is complete control
[5] = Postemergence, Rate 125 g/ha, scale 0 to 10, 0 is no effect, 10 is complete control
[6] = Postemergence, Rate 500 g/ha, scale of 0 to 10 where 0 is no effect and 10 is complete control
[7] = Rate 250 g/ha, Postemergence, scale of 0 to 10 where 0 is no effect and 10 is complete control
[8] = Rate 500 g/ha, scale of 0 to 10 where 0 is no effect and 10 is complete control
[9] = Rate 250 g/ha, scale of 0 to 10 where 0 is no effect and 10 is complete control

For Cc1noc(C)c1Cn1c(=O)on(C(=O)N(c2ccccc2)C(C)C)c1=O [Compound 569], the “Bedstraw plant response rating” value (bedstraw; [1]) was 0, the “Bedstraw plant response rating” value (bedstraw; [2]) was 0 and the “Bedstraw plant response rating” value (bedstraw; [3]) was 3. For the same molecule, the “Bedstraw plant response rating (0 to 10 scale)” value (bedstraw; Preemergence, Rate 250 g/ha) was 0, the “Bedstraw plant response rating” value (bedstraw; [4]) was 0 and the “Blackgrass plant response rating” value (blackgrass; [1]) was 0. The “Blackgrass plant response rating” value (blackgrass; [5]) was 0, the “Plant response rating, Blackgrass” value (blackgrass; [6]) was 3 and the “Blackgrass plant response rating” value (blackgrass; [2]) was 0. For the same molecule, the “Blackgrass plant response rating” value (blackgrass; [3]) was 0, the “Blackgrass plant response rating (0 to 10 scale)” value (blackgrass; Preemergence, Rate 250 g/ha) was 9 and the “Blackgrass plant response rating” value (blackgrass; [4]) was 9. The “Plant response rating, Blackgrass” value (blackgrass; [7]) was 2, the “B. signalgrass plant response rating” value (surinam grass; [1]) was 0 and the “B. signalgrass plant response rating” value (surinam grass; [5]) was 0. For the same molecule, the “Plant response rating, B. signalgrass” value (surinam grass; [6]) was 4, the “B. signalgrass plant response rating” value (surinam grass; [2]) was 0 and the “B. signalgrass plant response rating” value (surinam grass; [3]) was 9. The “B. signalgrass plant response rating (0 to 10 scale, 0 is no effect, 10 is complete control)” value (surinam grass; Preemergence, Rate 250 g/ha) was 9, the “B. signalgrass plant response rating” value (surinam grass; [4]) was 9 and the “Plant response rating, B. signalgrass” value (surinam grass; [7]) was 0. The “Cocklebur plant response rating” value (cocklebur; [1]) was 0, the “Cocklebur plant response rating” value (cocklebur; [5]) was 2 and the “Plant response rating, Cocklebur” value (cocklebur; [6]) was 2. The “Cocklebur plant response rating” value (cocklebur; [2]) was 0, the “Cocklebur plant response rating” value (cocklebur; [3]) was 0 and the “Cocklebur plant response rating (0 to 10 scale)” value (cocklebur; Preemergence, Rate 250 g/ha) was 0. The “Cocklebur plant response rating” value (cocklebur; [4]) was 0, the “Plant response rating, Cocklebur” value (cocklebur; [7]) was 2 and the “Corn plant response rating” value (corn; [1]) was 0. The “Corn plant response rating” value (corn; [5]) was 0, the “Plant response rating, Corn” value (corn; [6]) was 2 and the “Corn plant response rating” value (corn; [2]) was 0. The “Corn plant response rating” value (corn; [3]) was 0, the “Corn plant response rating (0 to 10 scale)” value (corn; Preemergence, Rate 250 g/ha) was 0 and the “Corn plant response rating” value (corn; [4]) was 9. For the same molecule, the “Plant response rating, Corn” value (corn; [7]) was 0, the “Crabgrass plant response rating” value (crabgrass; [1]) was 0 and the “Crabgrass plant response rating” value (crabgrass; [5]) was 0. For the same molecule, the “Plant response rating, Crabgrass” value (crabgrass; [6]) was 6, the “Crabgrass plant response rating” value (crabgrass; [2]) was 7 and the “Crabgrass plant response rating” value (crabgrass; [3]) was 9. For the same molecule, the “Crabgrass plant response rating (0 to 10 scale)” value (crabgrass; Preemergence, Rate 250 g/ha) was 9, the “Crabgrass plant response rating” value (crabgrass; [4]) was 9 and the “Plant response rating, Crabgrass” value (crabgrass; [7]) was 6. For the same molecule, the “Giant foxtail plant response rating” value (giant foxtail; [1]) was 0, the “Giant foxtail plant response rating” value (giant foxtail; [5]) was 3 and the “Plant response rating, Giant foxtail” value (giant foxtail; [6]) was 4. The “Giant foxtail plant response rating” value (giant foxtail; [2]) was 9, the “Giant foxtail plant response rating” value (giant foxtail; [3]) was 9 and the “Giant foxtail plant response rating (0 to 10 scale)” value (giant foxtail; Preemergence, Rate 250 g/ha) was 9. For the same molecule, the “Giant foxtail plant response rating” value (giant foxtail; [4]) was 10, the “Plant response rating, Giant foxtail” value (giant foxtail; [7]) was 4 and the “Morningglory plant response rating” value (morningglory; [1]) was 3. The “Morningglory plant response rating” value (morningglory; [5]) was 10, the “Plant response rating, Morningglory” value (morningglory; [6]) was 10 and the “Morningglory plant response rating” value (morningglory; [2]) was 0. The “Morningglory plant response rating” value (morningglory; [3]) was 0, the “Morningglory plant response rating (0 to 10 scale)” value (morningglory; Preemergence, Rate 250 g/ha) was 0 and the “Morningglory plant response rating” value (morningglory; [4]) was 0. For the same molecule, the “Plant response rating, Morningglory” value (morningglory; [7]) was 10, the “Plant response rating, Redroot pigweed” value (pigweed; [8]) was 4 and the “Redroot pigweed plant response rating” value (pigweed; [2]) was 7. For the same molecule, the “Redroot pigweed plant response rating” value (pigweed; [3]) was 9, the “Redroot pigweed plant response rating (0 to 10 scale)” value (pigweed; Preemergence, Rate 250 g/ha) was 9 and the “Redroot pigweed plant response rating” value (pigweed; [4]) was 10. The “Plant response rating, Redroot pigweed” value (pigweed; [9]) was 4, the “Rape plant response rating” value (rape; [1]) was 0 and the “Rape plant response rating” value (rape; [5]) was 0. For the same molecule, the “Plant response rating, Rape” value (rape; [6]) was 0, the “Rape plant response rating” value (rape; [2]) was 0 and the “Rape plant response rating” value (rape; [3]) was 0. For the same molecule, the “Rape plant response rating (0 to 10 scale)” value (rape; Preemergence, Rate 250 g/ha) was 4, the “Rape plant response rating” value (rape; [4]) was 9 and the “Plant response rating, Rape” value (rape; [7]) was 0. For the same molecule, the “Plant response rating, Soybean” value (soybean; [8]) was 4, the “Soybean plant response rating” value (soybean; [2]) was 0 and the “Soybean plant response rating” value (soybean; [3]) was 0. The “Soybean plant response rating (0 to 10 scale)” value (soybean; Preemergence, Rate 250 g/ha) was 0, the “Soybean plant response rating” value (soybean; [4]) was 0 and the “Plant response rating, Soybean” value (soybean; [9]) was 4. For the same molecule, the “Plant response rating, Sugarbeets” value (sugar beet; [8]) was 0, the “Sugarbeets plant response rating” value (sugar beet; [2]) was 0 and the “Sugarbeets plant response rating” value (sugar beet; [3]) was 0. The “Sugarbeets plant response rating (0 to 10 scale)” value (sugar beet; Preemergence, Rate 250 g/ha) was 0, the “Sugarbeets plant response rating” value (sugar beet; [4]) was 3 and the “Plant response rating, Sugarbeets” value (sugar beet; [9]) was 0. For the same molecule, the “Plant response rating, Velvetleaf” value (velvetleaf; [8]) was 3, the “Velvetleaf plant response rating” value (velvetleaf; [2]) was 0 and the “Velvetleaf plant response rating” value (velvetleaf; [3]) was 0. For the same molecule, the “Velvetleaf plant response rating (0 to 10 scale)” value (velvetleaf; Preemergence, Rate 250 g/ha) was 0, the “Velvetleaf plant response rating” value (velvetleaf; [4]) was 7 and the “Plant response rating, Velvetleaf” value (velvetleaf; [9]) was 2. The “Plant response rating, Wheat” value (wheat; [8]) was 0, the “Wheat plant response rating” value (wheat; [2]) was 0 and the “Wheat plant response rating” value (wheat; [3]) was 0. For the same molecule, the “Wheat plant response rating (0 to 10 scale)” value (wheat; Preemergence, Rate 250 g/ha) was 0, the “Wheat plant response rating” value (wheat; [4]) was 4 and the “Plant response rating, Wheat” value (wheat; [9]) was 0. The “Plant response rating, Wild oats” value (wild oat; [8]) was 0, the “Wild oats plant response rating” value (wild oat; [2]) was 0 and the “Wild oats plant response rating” value (wild oat; [3]) was 0. The “Wild oats plant response rating (0 to 10 scale)” value (wild oat; Preemergence, Rate 250 g/ha) was 6, the “Wild oats plant response rating” value (wild oat; [4]) was 9 and the “Plant response rating, Wild oats” value (wild oat; [9]) was 0. For the same molecule, the “Nutsedge plant response rating” value (purple nutsedge; [1]) was 0, the “Nutsedge plant response rating” value (purple nutsedge; [5]) was 0 and the “Plant response rating, Nutsedge” value (purple nutsedge; [6]) was 0. The “Nutsedge plant response rating” value (purple nutsedge; [2]) was 0, the “Nutsedge plant response rating” value (purple nutsedge; [3]) was 0 and the “Nutsedge plant response rating (0 to 10 scale)” value (purple nutsedge; Preemergence, Rate 250 g/ha) was 0. For the same molecule, the “Nutsedge plant response rating” value (purple nutsedge; [4]) was 0, the “Plant response rating, Nutsedge” value (purple nutsedge; [7]) was 0 and the “Rice plant response rating” value (rice) was 0. For the same molecule, the “S. Flatsedge plant response rating” value (smallflower flatsedge) was 0, the “Ducksalad plant response rating” value (duck salad) was 0 and the “Barnyardgrass plant response rating” value (bamyardgrass) was 0.
